{"source": "patent US10131652B2", "about": "“Pyrimidinyloxy benzene derivatives as herbicides” (E. I. DU PONT DE NEMOURS AND COMPANY, priority 2014, dated 2018)", "assay_type_in_all_cases": "in vivo", "key": {"[1]": {"test_system": "Italian ryegrass (Lolium multiflorum)", "assay": "Test B pre-/postemergence plant response", "procedure,_shortened": "(§1)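 Steps: plant seeds in loam soil–sand mix; spray soil preemergence, and in parallel spray 2–10 cm one- to two-leaf plants postemergence; hold ~10 days in greenhouse; visually rate injury against untreated controls (0 = no effect, 100 = complete control).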"}, "kochia (Kochia scoparia) [2]": {"test_system": "kochia (Kochia scoparia)", "assay": "Test B pre-/postemergence plant response", "procedure,_shortened": "as §1"}, "[3]": {"test_system": "ragweed (common ragweed, Ambrosia elatior)", "assay": "Test B pre-/postemergence plant response", "procedure,_shortened": "as §1"}, "kochia (Kochia scoparia) [4]": {"test_system": "kochia (Kochia scoparia)", "assay": "Test D postemergence plant response", "procedure,_shortened": "(§2)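 Visual 0–100 rating vs controls (0 = no effect, 100 = complete control), scored 13–15 d after postemergence spray. Plants 1- to 4-leaf stage (2–18 cm), potted in peat/vermiculite mix, kept in greenhouse.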"}, "wild oat (Avena fatua)": {"test_system": "wild oat (Avena fatua)", "assay": "Test D postemergence plant response", "procedure,_shortened": "as §2"}, "[5]": {"details": "31 g ai/ha, Preemergence, 0 to 100 scale where 0 is no effect and 100 is complete control"}, "[6]": {"details": "125 g ai/ha, postemergence, 0 to 100 scale, 0 no effect, 100 complete control"}, "[7]": {"details": "Postemergence, 31 g ai/ha, 0 to 100 scale (0 no effect, 100 complete control)"}, "[8]": {"details": "Preemergence, 125 g ai/ha, 0 to 100 scale (0 no effect, 100 complete control)"}, "[9]": {"details": "31 g ai/ha, scale 0 to 100 (0 no effect, 100 complete control)"}, "[10]": {"details": "62 g ai/ha, scale 0 to 100, 0 no effect, 100 complete control"}, "[11]": {"details": "125 g ai/ha, scale 0 to 100, 0 no effect, 100 complete control"}}, "data": [{"compound": "Cc1cc(-c2c(F)cccc2Oc2ncc(Br)cn2)on1", "note": "[Compound 230]", "values": [{"measurement": "Plant response rating, Ryegrass, Italian", "setting": "[1]; [5]", "result": 0}, {"measurement": "Plant response rating, Ryegrass, Italian", "setting": "[1]; [6]", "result": 0}, {"measurement": "Plant response rating, Ryegrass, Italian", "setting": "[1]; [7]", "result": 0}, {"measurement": "Ryegrass, Italian plant response rating", "setting": "[1]; [8]", "result": 0}, {"measurement": "Plant response rating, Kochia", "setting": "kochia (Kochia scoparia) [2]; [5]", "result": 60}, {"measurement": "Plant response rating, Kochia", "setting": "kochia (Kochia scoparia) [2]; [6]", "result": 100}, {"measurement": "Plant response rating, Kochia", "setting": "kochia (Kochia scoparia) [2]; [7]", "result": 80}, {"measurement": "Kochia plant response rating", "setting": "kochia (Kochia scoparia) [2]; [8]", "result": 100}, {"measurement": "Plant response rating, Ragweed", "setting": "[3]; [5]", "result": 20}, {"measurement": "Plant response rating, Ragweed", "setting": "[3]; [6]", "result": 100}, {"measurement": "Plant response rating, Ragweed", "setting": "[3]; [7]", "result": 70}, {"measurement": "Ragweed plant response rating", "setting": "[3]; [8]", "result": 80}, {"measurement": "Plant response rating (scale 0 to 100), Kochia", "setting": "kochia (Kochia scoparia) [4]; 16 g ai/ha", "result": 65}, {"measurement": "Kochia plant response rating", "setting": "kochia (Kochia scoparia) [4]; [9]", "result": 85}, {"measurement": "Kochia plant response rating", "setting": "kochia (Kochia scoparia) [4]; [10]", "result": 100}, {"measurement": "Plant response rating, Kochia", "setting": "kochia (Kochia scoparia) [4]; [11]", "result": 100}, {"measurement": "Plant response rating (scale 0 to 100), Oat, Wild", "setting": "wild oat (Avena fatua); 16 g ai/ha", "result": 0}, {"measurement": "Oat, Wild plant response rating", "setting": "wild oat (Avena fatua); [9]", "result": 0}, {"measurement": "Oat, Wild plant response rating", "setting": "wild oat (Avena fatua); [10]", "result": 5}, {"measurement": "Plant response rating, Oat, Wild", "setting": "wild oat (Avena fatua); [11]", "result": 10}]}]}
